Key:
[1] = tested on: FR-α promoter; assay: FR-α promoter-luciferase in T47D cells (endogenous PR and GR); type: cell-based; conditions: TSA 25 ng/ml with R5020
Description: T47D cells were transfected with FR-α promoter-luciferase and where indicated, co-transfected with SRC1 expression plasmid. R5020 (10 nM) and TSA (25 mg/ml) treatments were initiated at the time of transfection and lasted 3 days at the end of which the cells were harvested for luciferase assays.

[2] = tested on: FR-α; assay: Endogenous FR-α in AR-transfected HeLa cells, flow cytometry with fluorescein-folic acid conjugate; type: cell-based
Description: Where indicated, cells were transfected with AR expression plasmid and the testosterone (10 nM) and TSA (50 mg/ml) treatments were for 3 days post-transfection.

[3] = tested on: FR-α promoter; assay: FR-α promoter-luciferase in HeLa cells transfected with AR; type: cell-based; conditions: 10 nM
Description: (§1) FIGS. 10A, 10B, 10C and 10D are graphs showing the enhancement of FR-α promoter activity by testosterone/AR. In HeLa cells, AR was introduced by transiently transfecting an AR expression plasmid. FR-α promoter-luciferase, PSA-promoter-luciferase, or promoterless PGL3 basic-luciferase was co-transfected. Testosterone was introduced at the time of transfection (10 nM in FIGS. 10A, 10C, and 10D) and cells harvested for luciferase assays 48 h post-transfection. […] FIGS. 10C and 10D show AR dose responses for the FR-α and PSA promoters, respectively.
(§2) FIG. 11 is a graph showing the time course of testosterone/AR action on FR-α and PSA promoters. HeLa cells were cotransfected with AR expression plasmid and either FR-α promoter-luciferase or PSA promoter-luciferase. Testosterone (10 nM) was introduced 48 h post-transfection and the cells harvested to assay luciferase activity at the indicated times.

[4] = tested on: FR (α or β); assay: FR induction by testosterone in FR-negative cell types; type: cell-based; conditions: results not shown
[5] = tested on: PSA promoter; assay: PSA promoter-luciferase in HeLa cells transfected with AR; type: cell-based; conditions: 10 nM, introduced 48 h post-transfection
Description: as §1, §2

[6] = tested on: GRE2e1b promoter
Description: (§3) HeLa cells, which express endogenous GR, were transfected with FR-α promoter-luciferase or GRE2e1b promoter luciferase. […] FIG. 17B: Time course of Dex action. Promoter activity was measured in terms of luciferase activity at the different time points.

[7] = tested on: FR-α promoter; assay: FR-α promoter-luciferase in HeLa cells (endogenous GR); type: cell-based
Description: as §3

[8] = tested on: FR-α promoter; assay: FR-α promoter-luciferase reporter in IGROV-1 cells co-transfected with ER; type: cell-based; conditions: IGROV-1, ER co-transfected, 1 nM E2, pharmacologic concentrations of antiestrogen
Description: (§4) (FIG. 1A) HeLa and IGROV-1 cells (10^6) were co-transfected with the FR-α promoter-luciferase construct (400 ng) and either an ER expression plasmid (25 ng) or with the plasmid vector alone (25 ng) in the presence of 1 nM E2. Antiestrogens were introduced at the time of transfection. […] (FIG. 1B) The FR-α promoter-luciferase construct (400 ng) was transfected into BG-1 cells (10^6) in the absence or in the presence of E2 (1 nM) and antiestrogens were introduced at the time of transfection. (FIG. 1C) HeLa cells (10^6) were transfected with the thymidine kinase (TK)-promoter-luciferase (200 ng) or Rous Sarcoma Virus (RSV)-promoter-luciferase (200 ng) constructs and were co-transfected with either ER plasmid (25 ng) or with the plasmid vector (25 ng). Antiestrogens were introduced at the time of transfection.
Cell Culture and Transfection: HeLa I-1 cells were kindly provided by Dr. S. T. Rosen. BG-1 cells were provided by Dr. Randolf Ruch. […] Uniformity of transfection was routinely monitored through cotransfections with the β-galactosidase expression plasmid, pSV-β-gal (Promega). β-galactosidase activity was measured colorimetrically using the assay system available from Promega. […]

[9] = tested on: FR-α promoter; assay: FR-α promoter-luciferase reporter in HeLa cells co-transfected with ER; type: cell-based
Description: as §4
FIGS. 2A and 2B are graphs showing an estrogen and antiestrogen dose response of a control ERE-driven promoter and the FR-α promoter in HeLa cells. The Y-axis in FIG. 2A indicates promoter activation, whereas the Y-axis in FIG. 2B indicates promoter repression. The cells (10^6) were transfected with either ERE2E1b-luciferase (100 ng) (FIG. 2A) or FR-α promoter-luciferase (100 ng) (FIG. 2B) and co-transfected with the ER expression plasmid (50 ng) where indicated. Cells that were not co-transfected with the ER-plasmid were co-transfected instead with the plasmid vector alone (50 ng).
FIGS. 3A and 3B are graphs showing a time course of response of the control ERE2E1b-luciferase (FIG. 3A) and FR-α promoter luciferase (FIG. 3B) to antiestrogens in HeLa cells. The cells (10^6) were transfected with the indicated promoter-luciferase construct (100 ng) and co-transfected with ER expression plasmid (50 ng) in the presence of E2 (1 nM).
In one set of experiments, the antiestrogens were removed after a 6 h treatment.
Cell Culture and Transfection: HeLa I-1 cells were kindly provided by Dr. S. T. Rosen. BG-1 cells were provided by Dr. Randolf Ruch. HeLa (American Type Tissue Collection) and HeLa I-1 cells were routinely cultured in phenol red-free MEM supplemented with fetal bovine serum (FBS) (10%), penicillin (100 units/mL), streptomycin ([…]), and L-glutamine (2 mM). BG-1 and IGROV1 (American Type Tissue Collection) cells were routinely cultured in DMEM and supplemented as above. Treated or transfected cells were grown in phenol-red free media supplemented with charcoal-stripped FBS (5% v/v), penicillin (100 units/mL), streptomycin ([…]), L-glutamine (2 mM), insulin (2 μg/mL), and transferrin (40 μg/mL) unless otherwise noted. In addition, treated HeLa I-1 cells were grown in culture with 50 μg/mL G418. […] Uniformity of transfection was routinely monitored through cotransfections with the β-galactosidase expression plasmid, pSV-β-gal (Promega). β-galactosidase activity was measured colorimetrically using the assay system available from Promega.
Luciferase Assay: Forty-eight hours after transfection, the cells were washed once with PBS (10 mM sodium phosphate, pH 7.5, 150 mM NaCl) and harvested in 400 μL of reporter lysis buffer provided with the luciferase assay system (Promega). The samples were centrifuged at 12,000 g for 2 min at room temperature. The supernatant was assayed for luciferase activity in a luminometer (Lumat LB9501, Berthold) using the luciferase substrate from Promega.

[10] = tested on: FR-α; assay: Induction of endogenous FR-α in ER+/FRα-negative cells; type: cell-based; conditions: ER+/FRα-negative cells including BG-1; results not shown
From the text: It appears that ER will only modulate the endogenous FR-α gene in cells in which the gene is transcriptionally active.

[11] = tested on: FR-α; assay: FR-α in HeLa cell tumor xenografts after tamoxifen, western blot; type: in vivo, mouse; conditions: ER+ HeLa cell tumors, tamoxifen 1 mg/kg sc daily
[12] = target: T1, Estrogen receptor alpha (ER) (UniProt P03372 P03372:1-595); assay: EMSA; HeLa NE present; tamoxifen but not ICI 182,780 abolished band; conditions: assayed with HeLa nuclear extract; label: 32P
[13] = target: T1, Estrogen receptor alpha (ER); assay: EMSA; no ER shift with consensus Sp1; HeLa NE present; conditions: assayed with HeLa nuclear extract; label: 32P
[14] = target: T1, Estrogen receptor alpha (ER); assay: EMSA; HeLa NE present; E2 increased band, tamoxifen and ICI 182,780 abolished it; 100-fold unlabelled ERE blocked; room temperature, 50 mM KCl, 0.5 mM MgCl2; conditions: assayed with HeLa nuclear extract; label: 32P

T1 sequence (P03372 whole entry, one chain of several): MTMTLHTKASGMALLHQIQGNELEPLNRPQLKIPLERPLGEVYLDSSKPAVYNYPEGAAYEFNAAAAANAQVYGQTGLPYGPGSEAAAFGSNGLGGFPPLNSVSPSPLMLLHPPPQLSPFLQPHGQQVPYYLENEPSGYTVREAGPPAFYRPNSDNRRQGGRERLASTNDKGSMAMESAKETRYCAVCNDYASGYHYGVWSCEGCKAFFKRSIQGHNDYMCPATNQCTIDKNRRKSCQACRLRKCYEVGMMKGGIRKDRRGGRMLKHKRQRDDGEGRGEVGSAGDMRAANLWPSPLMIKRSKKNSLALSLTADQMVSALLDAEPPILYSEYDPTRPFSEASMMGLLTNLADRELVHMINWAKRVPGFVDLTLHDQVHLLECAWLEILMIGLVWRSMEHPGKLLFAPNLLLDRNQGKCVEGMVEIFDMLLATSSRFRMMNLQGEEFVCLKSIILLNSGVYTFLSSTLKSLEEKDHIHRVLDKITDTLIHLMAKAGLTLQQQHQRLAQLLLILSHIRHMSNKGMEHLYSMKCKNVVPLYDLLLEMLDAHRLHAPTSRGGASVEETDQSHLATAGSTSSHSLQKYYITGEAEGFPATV

CC(/C=C/C(=O)NO)=C\[C@@H](C)C(=O)c1ccc(N(C)C)cc1 [TSA, trichostatin A]
activation of the FR-α promoter by R5020 [1]: greatly potentiated
further enhancement of the testosterone/AR-dependent increase ([2]; 50 ng/ml TSA with testosterone 10 nM): ~4 fold

C[C@]12CC[C@H]3[C@@H](CCC4=CC(=O)CC[C@@]43C)[C@@H]1CC[C@@H]2O [testosterone]
FR-α promoter activity [3]: increased the promoter activity
time at which activation was observed ([3]; introduced 48 h post-transfection): 2 h
induction of FR (α or β) expression [4]: did not induce FR (α or β) expression
time at which activation was observed [5]: 2 h
increase in fluorescence of the major peak (endogenous FR) ([2]; 10 nM for 3 days, AR transfected): approximately 7 fold

C[C@@H]1C[C@H]2[C@@H]3CCC4=CC(=O)C=C[C@]4(C)[C@@]3(F)[C@@H](O)C[C@]2(C)[C@@]1(O)C(=O)CO [Dex, dexamethasone]
time at which activation was shown [6]: ≤ 3 h
concentration of optimal enhancement [7]: 50 nM
time at which enhancement began [7]: > 48 h

CC/C(=C(\c1ccccc1)c1ccc(OCCN(C)C)cc1)c1ccccc1 [tamoxifen, Tamoxifen]
FR-α promoter activity after repression by ER [8]: either partially or completely restored to the uninhibited values
derepression of FR-α promoter after 6 h treatment and withdrawal ([9]; 6 h treatment, then compound withdrawn): partially lost
effect on FR-α promoter (ligand dose response) ([9]; HeLa, ER co-transfected): the repression was counteracted
FR-α promoter activity after repression by ER ([9]; HeLa, ER co-transfected, 1 nM E2, pharmacologic concentrations of antiestrogen): either partially or completely restored to the uninhibited values
reporter activity at the end of 48 h post-transfection ([9]; antiestrogen introduced 24 h after co-transfection): a doubling of the reporter activity
onset of activation of FR-α promoter ([9]; antiestrogen introduced 24 h after transfection): began within hours and progressively increased
FR-α promoter activity in the absence of ER ([9]; no ER co-transfected, HeLa and IGROV-1, results not shown): did not alter FR-α promoter activity
induction of endogenous FR-α expression [10]: In no case did the inventor observe induction
FR-α expression in tumors [11]: significant increase in FR-α expression

B1: consensus ERE probe (dsDNA)
DNA 1: GTCAGGTCACAGTGACCTGA
DNA 2: TCAGGTCACTGTGACCTGAC
binding result [12]: binds

B2: consensus Sp1 probe (dsDNA)
DNA 1: ATTCGATCGGGGCGGGGCGAG
DNA 2: CTCGCCCCGCCCCGATCGAAT
binding result [13]: no binding

B3: FR-alpha P4 promoter probe -89 to -50 (dsDNA)
DNA 1: GGAGATGGGGGCAGGGCTCTATCTGCCCCAGGCTTCCGTCC
DNA 2: GGACGGAAGCCTGGGGCAGATAGAGCCCTGCCCCCATCTCC
binding result [14]: binds

Source: US20080131366A1, “Folate Receptor Gene Modulation For Cancer Diagnosis And Therapy” (priority 2003, published 2008)
